Read-outs that look alike come from different tables or passages of the source.
Assays:
recombinant human CK2 = recombinant human CK2 (Homo sapiens (Human), UniProt P68400); experiment: CK2 assay (cell-free, 33P-ATP filter plate); format: biochemical; conditions: for inhibition at 5 µM: read-out: CK2 Inhibition; for inhibition at 10 µM: read-out: CK2 % inhib @ 10 uM
PARP-HSA enzyme = PARP-HSA enzyme (Homo sapiens (Human), UniProt P09874); experiment: PARP assay (chemiluminescent PARP assay kit, Trevigen); format: biochemical; conditions: for IC50: read-out: PARP Inhibition IC50; for PARP Inhibition: at 1 μM
PARP-HSA enzyme, sequence (P09874 whole entry): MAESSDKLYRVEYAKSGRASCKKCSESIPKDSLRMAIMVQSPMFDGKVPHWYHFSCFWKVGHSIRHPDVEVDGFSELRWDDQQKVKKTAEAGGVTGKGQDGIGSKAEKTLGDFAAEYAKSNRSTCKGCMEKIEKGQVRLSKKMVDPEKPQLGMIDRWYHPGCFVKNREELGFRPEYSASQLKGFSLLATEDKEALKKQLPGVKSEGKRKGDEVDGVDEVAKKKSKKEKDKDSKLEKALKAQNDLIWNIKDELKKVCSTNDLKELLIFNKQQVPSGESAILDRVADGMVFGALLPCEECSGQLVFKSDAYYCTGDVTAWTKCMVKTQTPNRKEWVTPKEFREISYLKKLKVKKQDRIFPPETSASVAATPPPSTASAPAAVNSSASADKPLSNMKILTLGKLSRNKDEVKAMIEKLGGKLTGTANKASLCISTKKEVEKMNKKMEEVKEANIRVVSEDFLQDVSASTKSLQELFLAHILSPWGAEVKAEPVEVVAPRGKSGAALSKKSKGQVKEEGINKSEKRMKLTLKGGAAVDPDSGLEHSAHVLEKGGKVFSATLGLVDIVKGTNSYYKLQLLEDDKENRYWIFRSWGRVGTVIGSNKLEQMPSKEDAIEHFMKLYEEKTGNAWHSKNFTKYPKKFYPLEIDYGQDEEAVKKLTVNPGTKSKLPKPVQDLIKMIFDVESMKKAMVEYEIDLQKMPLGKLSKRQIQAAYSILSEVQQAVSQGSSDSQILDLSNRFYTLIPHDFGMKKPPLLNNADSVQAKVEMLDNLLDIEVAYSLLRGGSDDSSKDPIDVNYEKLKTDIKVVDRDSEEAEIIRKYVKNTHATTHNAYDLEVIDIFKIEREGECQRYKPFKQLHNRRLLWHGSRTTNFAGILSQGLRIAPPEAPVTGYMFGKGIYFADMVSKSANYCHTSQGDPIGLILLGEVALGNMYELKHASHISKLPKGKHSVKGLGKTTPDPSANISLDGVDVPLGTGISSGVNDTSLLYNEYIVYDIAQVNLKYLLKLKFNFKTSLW
Protocol: Modulatory activity of compounds described herein was assessed in vitro in cell-free CK2 assays. Modulatory activity of compounds described herein also are assessed in vitro in cell-free PARP assays. These assays are described hereafter.
PARP assays are conducted using a chemiluminescent PARP assay kit (Trevigen). Briefly, reactions are performed in Histone-coated strip wells, by adding 10 microliters test compound dissolved in 1×PARP Buffer (prepared by mixing 20×PARP buffer diluted with high-purity water) and 15 microliters diluted PARP-HSA enzyme (diluted in 1×PARP buffer, 0.1 unit per well) to 25 microliters PARP cocktail (prepared from 10×PARP cocktail and 10× activated DNA, both 2.5 microliters per well and 20 microliters per well of 1×PARP buffer). The reactions are incubated at ambient temperature for 60 minutes, then the liquid was removed. After washing the wells four times with PBS (200 ul), 50 microliters of STREP-HRP (Horseradish Peroxidase) solution (diluted 500-fold in 1× Strep-Diluent) was added and the reactions were allowed to incubate for 30 minutes at ambient temperature. The liquid was removed and, after washing the wells four times with PBS (200 ul), 50 microliters each of PeroxyGlo A and B (Chemiluminescent Horseradish Peroxidase substrates) are added and the resulting chemiluminescence quantified on the SpectraMax M5 plate reader.

[1] = system: HCT-116 human colorectal carcinoma cells; experiment: Cell-proliferation assay using Alamar Blue dye; format: cell-based; conditions: Homo sapiens;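 note: cells exposed to compound for about 4 days, then Alamar Blue added and dye fluorescence read after about 4 h, compared with medium-only control wells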
recombinant human PIM1 = recombinant human PIM1 (Homo sapiens (Human), UniProt P11309); experiment: PIM-1 kinase activity in cell-free in vitro assay; format: biochemical; conditions: for inhibition at 0.5 µM: 500 nM compound, read-out: PIM-1: % inh 500 nM
recombinant human PIM1, sequence (P11309 whole entry): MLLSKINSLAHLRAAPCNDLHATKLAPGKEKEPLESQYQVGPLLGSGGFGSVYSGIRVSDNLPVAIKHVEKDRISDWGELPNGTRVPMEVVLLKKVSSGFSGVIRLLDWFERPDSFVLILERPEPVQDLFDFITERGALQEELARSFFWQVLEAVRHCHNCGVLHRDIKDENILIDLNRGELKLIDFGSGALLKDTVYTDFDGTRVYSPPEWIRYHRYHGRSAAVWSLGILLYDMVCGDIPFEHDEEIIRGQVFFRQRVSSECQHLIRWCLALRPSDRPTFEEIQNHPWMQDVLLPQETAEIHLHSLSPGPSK

MV-4-11 = experiment: Cell proliferation modulatory activity, MV-4-11; format: cell-based; conditions: Homo sapiens, MV4-11
Jurkat = experiment: Cell proliferation modulatory activity, Jurkat; format: cell-based; conditions: Homo sapiens
K-562 [2] = experiment: Cell proliferation modulatory activity, K-562; format: cell-based; conditions: Homo sapiens, K562
Flt3 = Flt3 (Homo sapiens (Human), UniProt P36888); experiment: FLT-3 kinase activity in cell free in vitro assay; format: biochemical; conditions: cell-free; read-out: FLT-3
Flt3, sequence (P36888 27-993): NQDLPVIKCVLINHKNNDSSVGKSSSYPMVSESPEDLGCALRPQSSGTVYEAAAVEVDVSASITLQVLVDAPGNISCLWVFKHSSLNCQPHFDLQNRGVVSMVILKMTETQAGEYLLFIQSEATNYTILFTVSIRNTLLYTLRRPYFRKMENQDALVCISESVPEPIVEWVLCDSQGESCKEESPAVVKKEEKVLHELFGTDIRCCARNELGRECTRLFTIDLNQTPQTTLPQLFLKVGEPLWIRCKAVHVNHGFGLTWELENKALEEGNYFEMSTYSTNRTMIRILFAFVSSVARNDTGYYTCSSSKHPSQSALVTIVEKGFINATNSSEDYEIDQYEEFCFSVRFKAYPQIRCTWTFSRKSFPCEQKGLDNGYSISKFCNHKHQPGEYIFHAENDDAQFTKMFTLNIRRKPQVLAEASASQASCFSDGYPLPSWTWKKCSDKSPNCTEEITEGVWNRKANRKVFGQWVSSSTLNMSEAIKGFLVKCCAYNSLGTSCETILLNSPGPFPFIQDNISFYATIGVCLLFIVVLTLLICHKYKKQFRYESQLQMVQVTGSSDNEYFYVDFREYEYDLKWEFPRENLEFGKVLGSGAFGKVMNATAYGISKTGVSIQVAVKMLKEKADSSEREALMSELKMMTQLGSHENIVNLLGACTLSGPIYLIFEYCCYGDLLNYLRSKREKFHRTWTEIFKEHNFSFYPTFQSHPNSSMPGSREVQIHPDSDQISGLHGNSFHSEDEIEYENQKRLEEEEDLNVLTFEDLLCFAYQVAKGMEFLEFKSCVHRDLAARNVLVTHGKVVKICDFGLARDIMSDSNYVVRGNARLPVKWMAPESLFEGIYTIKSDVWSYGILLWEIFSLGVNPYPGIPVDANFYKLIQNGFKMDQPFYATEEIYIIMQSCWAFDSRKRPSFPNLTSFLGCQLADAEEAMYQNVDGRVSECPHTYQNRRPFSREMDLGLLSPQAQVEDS

[3] = system: PC-3 human prostatic cancer cells; experiment: Cell-proliferation assay using Alamar Blue dye; format: cell-based; conditions: read-out: PC3 IC50
Method in brief: (§1)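 Proliferation is assessed by Alamar Blue reduction after roughly four days of compound exposure, with fluorescence read about four hours after dye addition.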

MV-411 = MV-411 IC50 (Table 46); format: cell-based; conditions: Homo sapiens, MV4-11
K-562 [4] = experiment: K-562 IC50 (Table 46); format: cell-based; conditions: Homo sapiens, K562
MDA MB231 = MDA MB231 IC50 (Table 46); format: cell-based; conditions: Homo sapiens, MDA-MB-231
[5] = system: MiaPaca human pancreatic carcinoma cells; experiment: Cell-proliferation assay using Alamar Blue dye; format: cell-based; conditions: MIA PaCa-2
Method in brief: as §1

[6] = HCT-116, read-out: HCT-116 (uM), cell proliferation modulatory activity, HCT-116, second column
[7] = HCT-116, HCT-116, second column, read-out: HCT-116 (uM), cell proliferation modulatory activity

recombinant human CK2, sequence (P68400 whole entry): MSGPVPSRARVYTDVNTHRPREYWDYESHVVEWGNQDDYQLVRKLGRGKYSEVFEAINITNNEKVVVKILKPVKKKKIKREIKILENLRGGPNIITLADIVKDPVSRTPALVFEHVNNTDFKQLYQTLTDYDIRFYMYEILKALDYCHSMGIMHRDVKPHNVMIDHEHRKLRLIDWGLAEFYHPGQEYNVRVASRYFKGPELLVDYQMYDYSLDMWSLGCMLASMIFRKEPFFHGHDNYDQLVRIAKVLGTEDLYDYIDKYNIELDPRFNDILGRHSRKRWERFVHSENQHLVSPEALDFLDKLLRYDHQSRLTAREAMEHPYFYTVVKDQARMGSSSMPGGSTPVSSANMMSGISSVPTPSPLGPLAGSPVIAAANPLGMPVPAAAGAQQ
recombinant human CK2, sequence (P67870 whole entry partner): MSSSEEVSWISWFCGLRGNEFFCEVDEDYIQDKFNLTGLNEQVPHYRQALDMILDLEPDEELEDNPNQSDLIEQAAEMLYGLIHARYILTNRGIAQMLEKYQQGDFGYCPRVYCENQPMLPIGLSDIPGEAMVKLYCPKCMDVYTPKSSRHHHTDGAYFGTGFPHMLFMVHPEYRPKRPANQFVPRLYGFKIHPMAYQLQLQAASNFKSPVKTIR

O=C(O)c1ccc2c(c1)[nH]c(=O)c1ccccc12
inhibition at 5 µM (recombinant human CK2): 28% | IC50 (PARP-HSA enzyme): 70 nM

O=C(O)c1ccc2c3ccccc3c(=O)n(CCCO)c2c1
inhibition at 5 µM (recombinant human CK2): 29% | IC50 (PARP-HSA enzyme): 60 nM

O=c1[nH]c2cc(-c3nnn[nH]3)ccc2c2ccccc12
IC50 (PARP-HSA enzyme): 30 nM

O=C(O)c1ccc2c(c1)[nH]c(=O)c1ccncc12
IC50 (PARP-HSA enzyme): 1000 nM

O=C(Nc1ccccc1)c1ccc2c(c1)[nH]c(=O)c1ccsc12
inhibition at 10 µM (recombinant human CK2): 22% | PARP % inhib @ 1 uM (PARP-HSA enzyme): 0%

COc1ccc(NC(=O)c2ccc3c(c2)[nH]c(=O)c2ccsc23)c(OC)c1
inhibition at 10 µM (recombinant human CK2): 3% | PARP % inhib @ 1 uM (PARP-HSA enzyme): 0%

O=C(Nc1ccc(N2CCOCC2)cc1)c1ccc2c(c1)[nH]c(=O)c1ccsc12
inhibition at 10 µM (recombinant human CK2): -3% | PARP % inhib @ 1 uM (PARP-HSA enzyme): 0%

COc1ccccc1NC(=O)c1ccc2c(c1)[nH]c(=O)c1ccsc12
inhibition at 10 µM (recombinant human CK2): -7% | PARP % inhib @ 1 uM (PARP-HSA enzyme): 0%

O=C(O)c1ccc2c3sccc3c(=O)n(CCCO)c2c1
PARP % inhib @ 1 uM (PARP-HSA enzyme): 21%

O=c1[nH]c2cc(-c3nn[nH]n3)ccc2c2sccc12
PARP % inhib @ 1 uM (PARP-HSA enzyme): 39%

CN(C)CCn1c(=O)c2ccsc2c2ccc(C(=O)O)cc21
PARP % inhib @ 1 uM (PARP-HSA enzyme): 5%

O=C(O)c1ccc2c(c1)nc(Nc1ccccc1)c1ccsc12
IC50 ([1]; HCT-116, read-out: HCT-116 (uM), cell proliferation modulatory activity, HCT-116, first column): 10 µM | IC50 [1, 6]: > 10 µM | inhibition at 0.5 µM (recombinant human PIM1; cell-free): 15.7% | IC50 (recombinant human PIM1; cell-free): 454 nM | IC50 (MV-4-11): 8.33 µM | IC50 (Jurkat): 6.12 µM | IC50 (K-562 [2]): > 10 µM

c1ccc(Nc2nc3cc(-c4nnc[nH]4)ccc3c3sccc23)cc1
IC50 [1, 7]: 4.9 µM | inhibition at 0.5 µM (recombinant human PIM1; cell-free): -3.3% | IC50 (Jurkat): 7.6 µM | IC50 (K-562 [2]): 6.26 µM

COc1cccc(Nc2nc3cc(C(=O)O)ccc3c3cnccc23)c1
inhibition at 0.5 µM (recombinant human PIM1; cell-free): 75.9% | IC50 (recombinant human PIM1; cell-free): 88 nM | IC50 (MV-4-11): 1.12 µM | IC50 (Flt3): 9 nM | IC50 (Jurkat): 6.52 µM | IC50 (K-562 [2]): 5.86 µM

O=C(O)c1ccc2c(c1)nc(Nc1ccc(F)c(Cl)c1)c1ccncc12
IC50 [1, 6]: 4.34 µM | inhibition at 0.5 µM (recombinant human PIM1; cell-free): 82% | IC50 (recombinant human PIM1; cell-free): 115 nM | IC50 (MV-4-11): 1.7 µM | IC50 (Flt3): 41 nM | IC50 (Jurkat): 2.68 µM | IC50 (K-562 [2]): 7.44 µM

O=C(O)c1ccc2c(c1)nc(Nc1cc(F)cc(F)c1)c1ccsc12
IC50 [1, 6]: > 10 µM | inhibition at 0.5 µM (recombinant human PIM1; cell-free): 84.4% | IC50 (recombinant human PIM1; cell-free): 82 nM | IC50 (MV-4-11): 0.333 µM | IC50 (Jurkat): 5.86 µM | IC50 (K-562 [2]): > 10 µM

O=C(O)c1ccc2c(c1)nc(Nc1cccc(F)c1)c1ccsc12
IC50 [1, 6]: > 10 µM | inhibition at 0.5 µM (recombinant human PIM1; cell-free): 82.7% | IC50 (recombinant human PIM1; cell-free): 136 nM | IC50 (MV-4-11): 0.475 µM | IC50 (Jurkat): 5.92 µM | IC50 (K-562 [2]): > 10 µM

O=C(O)c1ccc2c(c1)nc(Nc1cccc(F)c1)c1ccncc12
inhibition at 0.5 µM (recombinant human PIM1; cell-free): 96.1% | IC50 (recombinant human PIM1; cell-free): 143 nM | IC50 (MV-4-11): 2.28 µM | IC50 (Jurkat): 3.2 µM | IC50 (K-562 [2]): > 10 µM

O=C(O)c1ccc2c(c1)nc(Nc1cc(F)cc(F)c1)c1ncncc12
IC50 [1, 6]: 4.05 µM | inhibition at 0.5 µM (recombinant human PIM1; cell-free): 80% | IC50 (recombinant human PIM1; cell-free): > 1100 nM | IC50 (Jurkat): 2.59 µM | IC50 (K-562 [2]): 2.41 µM

O=C(O)c1ccc2c(c1)nc(Nc1cccc(Cl)c1)c1ncncc12
IC50 [1, 6]: 7.19 µM | inhibition at 0.5 µM (recombinant human PIM1; cell-free): 68.2% | IC50 (recombinant human PIM1; cell-free): 370 nM | IC50 (MV-4-11): > 10 µM | IC50 (Jurkat): 0.882 µM | IC50 (K-562 [2]): 1.13 µM

CNc1ncc2c(n1)c(Nc1ccccc1)nc1cc(C(=O)O)ccc12
IC50 [1, 6]: 2.99 µM | inhibition at 0.5 µM (recombinant human PIM1; cell-free): 20.8% | IC50 (MV-4-11): > 10 µM | IC50 (Jurkat): 0.728 µM

O=C(O)c1ccc2c(c1)nc(Nc1ccc(Cl)cc1)c1ccncc12
IC50 [1, 6]: 6.72 µM | inhibition at 0.5 µM (recombinant human PIM1; cell-free): 83% | IC50 (recombinant human PIM1; cell-free): 284 nM | IC50 (MV-4-11): 1.56 µM | IC50 (Jurkat): 2.52 µM | IC50 (K-562 [2]): 8.65 µM

NCc1ccc(Nc2nc3c(-c4nnc[nH]4)cccc3c3cnccc23)cc1
IC50 [3]: > 30000 nM | IC50 (MV-411): < 100 nM | IC50 (recombinant human PIM1): < 100 nM | IC50 (K-562 [4]): > 10000 nM | IC50 (MDA MB231): 9640 nM

CN(C)CCOc1ccc(Nc2nc3c(-c4nnc[nH]4)cccc3c3cnccc23)c(F)c1
IC50 [3]: 12000 nM | IC50 (MV-411): < 100 nM | IC50 (K-562 [4]): < 1000 nM | IC50 (MDA MB231): 2180 nM

CN1CCN(c2ccc(Nc3nc4c(-c5nnc[nH]5)cccc4c4cnccc34)c(Cl)c2)CC1
IC50 [5]: 1500 nM | IC50 [3]: 3660 nM | IC50 (MV-411): < 100 nM | IC50 (K-562 [4]): < 1000 nM | IC50 (MDA MB231): 2940 nM

COCCOc1ccc(Nc2nc3c(-c4nnc[nH]4)cccc3c3cnccc23)c(F)c1
IC50 [5]: < 1000 nM | IC50 (MV-411): < 100 nM | IC50 (recombinant human PIM1): < 100 nM | IC50 (K-562 [4]): < 500 nM | IC50 (MDA MB231): < 1000 nM

CS(=O)(=O)c1ccc(Nc2nc3c(-c4nnc[nH]4)cccc3c3cnccc23)c(Cl)c1
IC50 [3]: 1510 nM | IC50 (MV-411): < 100 nM | IC50 (recombinant human PIM1): < 100 nM | IC50 (K-562 [4]): 2660 nM | IC50 (MDA MB231): 2730 nM

CCOC(=O)c1ccc(Nc2nc3c(-c4nnc[nH]4)cccc3c3cnccc23)c(Cl)c1
IC50 [5]: > 10000 nM | IC50 [3]: > 30000 nM | IC50 (MV-411): < 100 nM | IC50 (recombinant human PIM1): < 100 nM | IC50 (K-562 [4]): > 10000 nM | IC50 (MDA MB231): > 10000 nM

O=C(O)c1ccc2c(c1)nc(OCCCO)c1ccccc12 [drawing 559]
inhibition at 5 µM (recombinant human CK2): 38% | IC50 (PARP-HSA enzyme): 400 nM

COC(=O)c1ccc2c(c1)[nH]c(=O)c1ccncc12 [drawing 562]
IC50 (PARP-HSA enzyme): 800 nM

CN(C)CCNc1nc2cc(C(=O)O)ccc2c2ccccc12 [drawing 563]
PARP Inhibition (PARP-HSA enzyme): 15% (at 1 μM)

O=C(O)c1ccc2c(c1)nc(Nc1ccccc1)c1ccccc12 [drawing 564]
PARP Inhibition (PARP-HSA enzyme): 9% (at 1 μM)

COC(=O)c1ccc2c(c1)nc(Cl)c1ccsc12 [drawing 695]
inhibition at 10 µM (recombinant human CK2): 18% | PARP % inhib @ 1 uM (PARP-HSA enzyme): 18%

O=C(O)c1ccc2c(c1)nc(Nc1cccc(Cl)c1)c1ccncc12 [drawing 1512]
IC50 [1, 7]: 5.09 µM | inhibition at 0.5 µM (recombinant human CK2; 500 nM compound, cell-free, read-out: CK2: % inh 500 nM): 102% | inhibition at 0.5 µM (recombinant human PIM1; cell-free): 90% | IC50 (MV-4-11): 1.68 µM | IC50 (Jurkat): 3.42 µM | IC50 (K-562 [2]): 4.39 µM

C#Cc1cccc(Nc2nc3cc(C(=O)O)ccc3c3cncnc23)c1 [drawing 1544]
IC50 [1, 7]: 5.86 µM | inhibition at 0.5 µM (recombinant human PIM1; cell-free): 65.9% | IC50 (recombinant human PIM1; cell-free): 306 nM | IC50 (MV-4-11): 0.464 µM | IC50 (Jurkat): 3.34 µM | IC50 (K-562 [2]): 2.48 µM

C#Cc1cccc(Nc2nc3cc(C(=O)O)ccc3c3cnccc23)c1 [drawing 1555]
inhibition at 0.5 µM (recombinant human PIM1; cell-free): 84.1% | IC50 (recombinant human PIM1; cell-free): 296 nM | IC50 (MV-4-11): > 10 µM | IC50 (Jurkat): 2.78 µM | IC50 (K-562 [2]): 3.33 µM
